ChEMBL document CHEMBL1201862, “PubChem BioAssay data set” (2004)
Each block holds one molecule with its values, some of them ahead of it. Calls of active or inactive are those of the source.

Experiments:
Vero = assay: viability loss in Vero cells – cell-based, plate reader, cherry-pick samples, cytotoxicity control, dose response (AID 687020); format: functional; conditions: Chlorocebus sabaeus
[1] = target: T1, Scavenger receptor class B member 1 (Mus musculus, UniProt Q61009); assay: blockers of DiI-HDL lipid transfer via SR-BI – cell-based, ldlA[mSR-BI] CHO, DiI fluorescence, dry powder, set 10, dose response (AID 624029); format: functional
T1 sequence (Q61009 whole entry): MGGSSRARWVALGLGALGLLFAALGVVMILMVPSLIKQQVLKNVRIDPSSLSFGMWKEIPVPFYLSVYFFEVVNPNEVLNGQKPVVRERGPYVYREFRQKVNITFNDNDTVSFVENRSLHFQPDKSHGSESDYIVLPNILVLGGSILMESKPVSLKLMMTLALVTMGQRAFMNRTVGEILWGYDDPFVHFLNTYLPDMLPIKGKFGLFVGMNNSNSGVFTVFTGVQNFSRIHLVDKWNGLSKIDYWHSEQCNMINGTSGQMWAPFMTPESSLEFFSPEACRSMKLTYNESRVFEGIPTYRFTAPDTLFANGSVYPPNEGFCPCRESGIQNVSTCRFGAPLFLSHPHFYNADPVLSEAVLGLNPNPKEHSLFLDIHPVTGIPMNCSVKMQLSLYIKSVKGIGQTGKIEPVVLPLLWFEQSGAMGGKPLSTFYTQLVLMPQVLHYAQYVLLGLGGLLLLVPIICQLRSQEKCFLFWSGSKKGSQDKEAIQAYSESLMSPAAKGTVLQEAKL

[2] = target: T1, Scavenger receptor class B member 1; assay: mouse SR-BI DiI-HDL transfer blockers – ldlA[mSR-BI] CHO cells, fluorescence plate reader, dry powder, set 9, dose response (AID 623880); format: functional, cell-based
[3] = toxicity toward HepG2 liver cells – cell-based, plate reader, cherry-pick, antagonist series, cytotoxicity control, dose response (AID 743416); format: functional
[4] = blockade of melanocortin 4 receptor signaling – cell-based, plate reader, cherry pick, counter-screen for LGR2 antagonist project, dose response (AID 743444); format: functional;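 note: transfected HEK 293 cells stimulated with alpha-MSH peptide; potency of inhibitors of the alpha-MSH evoked signal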
[5] = blockers of bursicon-stimulated LGR2 cAMP reporter – cell-based, HEK293, CRE-luciferase reporter, cherry pick, set 2, dose response (AID 743343); format: functional;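 note: transfected cells were stimulated with diluted bursicon conditioned medium after compound addition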
[6] = A549 cell cytotoxicity, dose response, cytotoxicity control, plate reader, cherry-pick, antagonist series (AID 743412); format: functional, cell-based
[7] = Fluorescence-based cell-based high throughput dose response assay for inhibitors of the interaction of nucleotide-binding oligomerization domain containing 2 (NOD2) and the receptor-interacting serine-threonine kinase 2 (RIPK2).; format: functional, Homo sapiens
[8] = target: T2, Protein disulfide-isomerase (Homo sapiens, UniProt P07237); assay: inhibition of PDI-driven insulin aggregation – biochemical, turbidity, absorbance, cherry-picked samples, dose response (AID 602350); format: functional
T2 sequence (P07237 whole entry): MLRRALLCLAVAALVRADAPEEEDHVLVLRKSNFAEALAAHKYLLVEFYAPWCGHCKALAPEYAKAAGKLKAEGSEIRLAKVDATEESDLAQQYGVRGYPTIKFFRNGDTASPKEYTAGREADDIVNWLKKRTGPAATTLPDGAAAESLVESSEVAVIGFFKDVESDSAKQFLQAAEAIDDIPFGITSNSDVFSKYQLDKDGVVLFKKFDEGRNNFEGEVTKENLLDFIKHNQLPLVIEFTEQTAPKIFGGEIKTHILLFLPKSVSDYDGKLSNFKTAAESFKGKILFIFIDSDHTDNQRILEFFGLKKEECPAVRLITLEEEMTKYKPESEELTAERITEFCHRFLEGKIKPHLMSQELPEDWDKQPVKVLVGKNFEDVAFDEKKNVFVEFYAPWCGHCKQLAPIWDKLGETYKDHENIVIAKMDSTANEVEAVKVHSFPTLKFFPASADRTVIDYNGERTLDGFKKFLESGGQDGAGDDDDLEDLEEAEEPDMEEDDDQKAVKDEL

[9] = general mammalian cell viability loss – activator set, cherry-pick, cytotoxicity control for miR-122 modulator project, dose response (AID 720690); format: functional, cell-based;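 note: HEK293T human cells scored for general mammalian cytotoxicity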
[10] = target: T2, Protein disulfide-isomerase; assay: inhibition of PDI-mediated insulin reduction – biochemical, turbidity, dry powder samples, set 2, confirmation (AID 652146)
cells [11] = format: functional, cell-based
cells [12] = format: functional, cell-based; remark: listed apart in the source
[13] = target: Disintegrin and metalloproteinase domain-containing protein 17 (Homo sapiens, UniProt P78536); assay: exosite inhibitors of ADAM17, dose response, biochemical (AID 743260)
Chain of Disintegrin and metalloproteinase domain-containing protein 17 (P78536 whole entry, the tested form may be a part): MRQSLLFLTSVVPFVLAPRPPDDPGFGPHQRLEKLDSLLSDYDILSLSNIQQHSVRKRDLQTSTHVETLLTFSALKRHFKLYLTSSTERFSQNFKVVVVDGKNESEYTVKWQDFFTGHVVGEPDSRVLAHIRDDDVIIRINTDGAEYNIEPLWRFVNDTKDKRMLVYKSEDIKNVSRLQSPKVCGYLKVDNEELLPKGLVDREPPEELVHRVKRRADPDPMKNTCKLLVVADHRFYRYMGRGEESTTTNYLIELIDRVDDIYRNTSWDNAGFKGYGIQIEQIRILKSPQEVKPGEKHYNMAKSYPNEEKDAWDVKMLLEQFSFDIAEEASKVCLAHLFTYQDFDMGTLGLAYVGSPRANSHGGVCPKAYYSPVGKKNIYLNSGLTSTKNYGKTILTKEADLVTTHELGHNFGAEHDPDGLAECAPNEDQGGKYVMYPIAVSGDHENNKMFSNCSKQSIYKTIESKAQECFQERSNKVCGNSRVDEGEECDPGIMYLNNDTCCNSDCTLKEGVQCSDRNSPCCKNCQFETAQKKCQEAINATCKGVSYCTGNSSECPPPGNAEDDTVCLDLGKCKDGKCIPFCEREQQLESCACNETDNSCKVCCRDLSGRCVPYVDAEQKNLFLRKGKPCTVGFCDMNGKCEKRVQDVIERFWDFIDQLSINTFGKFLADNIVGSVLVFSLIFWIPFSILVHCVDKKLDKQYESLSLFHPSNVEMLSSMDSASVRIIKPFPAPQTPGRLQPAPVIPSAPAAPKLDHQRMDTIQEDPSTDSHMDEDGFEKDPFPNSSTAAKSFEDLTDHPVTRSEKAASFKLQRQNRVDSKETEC

[14] = inhibition of ADAM10 peptide cleavage – biochemical, FRET peptide substrate, recombinant human ADAM10, selectivity assay for ADAM17 exosite inhibitor project, dose response (AID 743259);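 note: ADAM10 enzyme cleaving a FRET peptide substrate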
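Throughout, for EC50: agonist potency from rise in intracellular calcium fluorescence.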

Structure (SMILES): Cc1cc(F)cc(-c2cc(C(=O)NCC3CCCCC3)[nH]n2)c1
- AC50 (Vero): 22.6 µM (active)

- AC50 [1]: > 70 µM (inactive)
- AC50 [2]: 38.9 µM (active)
Structure (SMILES): C[C@@H]1CN([C@H](C)CO)C(=O)c2cc(NC(=O)C3CCCCC3)ccc2O[C@H]1CN(C)C(=O)c1ccc(Cl)cc1

Structure (SMILES): N#C[C@@H]1[C@H](c2ccc(C#Cc3cccc(F)c3)cc2)[C@@H](CO)N1C(=O)C1CCC1
- AC50 [3]: > 47 µM (inactive)
- AC50 [4]: 8.46 µM (active)
- AC50 [5]: 9.75 µM (active)
- AC50 [6]: 28.2 µM (active)

Structure (SMILES): CC1=CC2OC3CC4OC(=O)C=CC=CC(=O)OCCC(C)C(O)C(=O)OCC2(CC1O)C4(C)C31CO1 (stereo not given)
- IC50 [7]: 49.7 µM (inactive)

- AC50 [8]: 14.6 µM (active)
Structure (SMILES): O=C(O)C1C(c2ccccc2)C(C(=O)Oc2ccc(O)cc2)C1c1ccccc1 (stereo not given)

Structure (SMILES): O=C(C1CCCCC1)N1C[C@@H]2[C@H](c3ccccc31)[C@H](CO)N2Cc1ccccc1Cl
- AC50 [9]: 27.1 µM (active)

- AC50 [10]: > 30 µM (inactive)
Structure (SMILES): O=C(N1CCCC1)C1(CCOc2ccccc2)CCN(Cc2ccc(O)c(Cl)c2)CC1

Structure (SMILES): CC(C)Cn1c(O)cc(=O)nc1SCC(=O)N1CCc2ccccc2C1
- IC50 (cells [11]): > 29.9 µM (inactive)
- EC50 (cells [12]): > 29.9 µM (inactive)

Structure (SMILES): CCC(c1nnnn1Cc1ccccc1)N1CCC2(CC1)C(=O)NCN2c1ccccc1 (stereo not given)
- IC50 [13]: > 69.4 µM (inactive)
- IC50 [14]: > 69.4 µM (inactive)
